Test results from US8586611B2 (priority 2005, dated 2013).

Experiments:
Format in all cases: in vivo
[1] = tested on: Pseudoperonospora cubensis; assay: Test A: cucumber downy mildew, spray the day before inoculation (disease rating, 100 = 100% disease control)
From the text: The test compounds were first dissolved in acetone in an amount equal to 3% of the final volume and then suspended at the desired concentration (in ppm) in acetone and purified water (50/50 mix by volume) containing 250 ppm of the surfactant Trem® 014 (polyhydric alcohol esters). The resulting test suspensions were then used in tests A-E. Spraying a 200 ppm test suspension to the point of run-off on the test plants was the equivalent of a rate of 500 g/ha.
The test suspension was sprayed to the point of run-off on cucumber seedlings. The following day the seedlings were inoculated with a spore suspension of Pseudoperonospora cubensis (the causal agent of cucumber downy mildew) and incubated in a saturated atmosphere at 20° C. for 24 h, and then moved to a growth chamber at 20° C. for 6 days, after which disease ratings were made.
Results for Tests A-F are given in Table A. In the table, a rating of 100 indicates 100% disease control and a rating of 0 indicates no disease control (relative to the controls). A dash (-) indicates no test results.

[2] = tested on: Erysiphe graminis f. sp. tritici; assay: Test E: wheat powdery mildew, spray the day before inoculation (disease rating, 100 = 100% disease control)
Procedure, shortened: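 Protective test: spores of E. graminis f. sp. tritici dusted on wheat seedlings one day after run-off spraying of test suspension (acetone/water with 250 ppm surfactant; 200 ppm = 500 g/ha). Ratings after 7 days in growth chamber at 20° C, 100 = full control, 0 = none, relative to controls.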

[3] = tested on: Plasmopara viticola; assay: Test B: grape downy mildew, spray 24 h after inoculation (disease rating, 100 = 100% disease control)
Procedure, shortened: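 This is a curative spray test, applied 24 h after inoculation. Compounds in 50/50 acetone–water with 250 ppm Trem 014 surfactant were sprayed to run-off on P. viticola-infected seedlings, with 200 ppm equating to 500 g/ha. Plants were kept 5 days in a 20 °C growth chamber, then 24 h humid, and scored 0–100 for disease control relative to controls.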

[4] = tested on: Phytophthora infestans; assay: whole plant or invertebrate; details: tomato late blight
[5] = sprayed the day before inoculation, unmarked compounds (no asterisk, not 40 or 10 ppm)
[6] = sprayed the day before inoculation, 7 days at 20° C., unmarked compounds (no asterisk, not 40 or 10 ppm)
[7] = sprayed 24 h after inoculation, unmarked compounds (no asterisk, not 40 or 10 ppm)
[8] = spray the day before inoculation, compounds without asterisk (not 40 or 10 ppm)
[9] = spray 24 h after inoculation, compounds without asterisk (not 40 or 10 ppm)

## C[C@@H](NC(=O)c1csc(C2CCN(C(=O)Cc3ccccc3Cl)CC2)n1)c1ccccc1 [compound 261]
[1]; [5]
  Test A disease rating (100 = 100% disease control, 0 = no disease control): 93
[2]; [6]
  Test E disease rating (100 = 100% disease control, 0 = no disease control): 21
[3]; [7]
  Test B disease rating (100 = 100% disease control, 0 = no disease control): 0
[4]; [5]
  Test C disease rating (100 = 100% disease control, 0 = no disease control): 31

## O=C(NCc1ccccc1)c1csc(C2CCN(C(=O)Cc3ccccc3Cl)CC2)n1 [compound 262]
[1]; [5]
  Test A disease rating (100 = 100% disease control, 0 = no disease control): 94
[2]; [6]
  Test E disease rating (100 = 100% disease control, 0 = no disease control): 0
[3]; [7]
  Test B disease rating (100 = 100% disease control, 0 = no disease control): 6
[4]; [5]
  Test C disease rating (100 = 100% disease control, 0 = no disease control): 52

## O=C(NC1Cc2ccccc2C1)c1csc(C2CCN(C(=O)Cc3ccccc3Cl)CC2)n1 [compound 265]
[1]; [5]
  Test A disease rating (100 = 100% disease control, 0 = no disease control): 0
[2]; [6]
  Test E disease rating (100 = 100% disease control, 0 = no disease control): 47
[3]; [7]
  Test B disease rating (100 = 100% disease control, 0 = no disease control): 34
[4]; [5]
  Test C disease rating (100 = 100% disease control, 0 = no disease control): 0

## O=C(Cc1ccccc1Cl)N1CCC(c2nc(C(=O)N3CCc4ccccc4C3)cs2)CC1 [compound 267]
[1]; [5]
  Test A disease rating (100 = 100% disease control, 0 = no disease control): 95
[2]; [6]
  Test E disease rating (100 = 100% disease control, 0 = no disease control): 0
[3]; [7]
  Test B disease rating (100 = 100% disease control, 0 = no disease control): 6
[4]; [5]
  Test C disease rating (100 = 100% disease control, 0 = no disease control): 21

## CC1CCN(C(=O)c2csc(C3CCN(C(=O)Cc4ccccc4Cl)CC3)n2)CC1 [compound 268]
[1]; [5]
  Test A disease rating (100 = 100% disease control, 0 = no disease control): 0
[2]; [6]
  Test E disease rating (100 = 100% disease control, 0 = no disease control): 0
[3]; [7]
  Test B disease rating (100 = 100% disease control, 0 = no disease control): 6
[4]; [5]
  Test C disease rating (100 = 100% disease control, 0 = no disease control): 36

## O=C(Cc1ccccc1Cl)N1CCC(c2nc(C(=O)N3CCCC3c3cccnc3)cs2)CC1 (stereo not drawn) [compound 269]
[1]; [5]
  Test A disease rating (100 = 100% disease control, 0 = no disease control): 0
[2]; [6]
  Test E disease rating (100 = 100% disease control, 0 = no disease control): 0
[3]; [7]
  Test B disease rating (100 = 100% disease control, 0 = no disease control): 40
[4]; [5]
  Test C disease rating (100 = 100% disease control, 0 = no disease control): 0

## C[C@@H](NC(=O)c1csc(C2CCN(C(=O)Cc3cccc(C(F)(F)F)c3)CC2)n1)c1ccc(Br)cc1 [compound 270]
[1]; [5]
  Test A disease rating (100 = 100% disease control, 0 = no disease control): 0
[2]; [6]
  Test E disease rating (100 = 100% disease control, 0 = no disease control): 0
[3]; [7]
  Test B disease rating (100 = 100% disease control, 0 = no disease control): 0
[4]; [5]
  Test C disease rating (100 = 100% disease control, 0 = no disease control): 0

## N-[(1R)-2,3-dihydro-1H-inden-1-yl]-N-methyl-2-[1-[[5-methyl-3-(trifluoromethyl)-1H-pyrazol-1-yl]acetyl]-4-piperidinyl]-4-thiazolecarboxamide [Compound 178]
[1]; [8]
  Test A disease rating (100 = 100% disease control, 0 = no disease control): 100%
[2]; [8]
  Test E disease rating (100 = 100% disease control, 0 = no disease control): 0%
[3]; [9]
  Test B disease rating (100 = 100% disease control, 0 = no disease control): 99%
[4]; [8]
  Test C disease rating (100 = 100% disease control, 0 = no disease control): 100%

## N-methyl-1-[1-[[5-methyl-3-(trifluoromethyl)-1H-pyrazol-1-yl]acetyl]-4-piperidinyl]-N-[(1R)-1,2,3,4-tetrahydro-1-naphthalenyl]-1H-pyrazole-4-carboxamide [Compound 233]
[1]; [8]
  Test A disease rating (100 = 100% disease control, 0 = no disease control): 96%
[2]; [8]
  Test E disease rating (100 = 100% disease control, 0 = no disease control): 29%
[3]; [9]
  Test B disease rating (100 = 100% disease control, 0 = no disease control): 51%
[4]; [8]
  Test C disease rating (100 = 100% disease control, 0 = no disease control): 91%

## N-methyl-2-[1-[[5-methyl-3-(trifluoromethyl)-1H-pyrazol-1-yl]acetyl]-4-piperidinyl]-N-(1,2,3,4-tetrahydro-1-naphthalenyl)-4-thiazolecarboxamide [Compound 188]
[1]; [8]
  Test A disease rating (100 = 100% disease control, 0 = no disease control): 90%
[2]; [8]
  Test E disease rating (100 = 100% disease control, 0 = no disease control): 86%
[3]; [9]
  Test B disease rating (100 = 100% disease control, 0 = no disease control): 6%
[4]; [8]
  Test C disease rating (100 = 100% disease control, 0 = no disease control): 29%

## N-methyl-2-[1-[[5-methyl-3-(trifluoromethyl)-1H-pyrazol-1-yl]acetyl]-4-piperidinyl]-N-(1,2,3,4-tetrahydro-2-methyl-1-naphthalenyl)-4-thiazolecarboxamide [Compound 193]
[1]; [8]
  Test A disease rating (100 = 100% disease control, 0 = no disease control): 93%
[2]; [8]
  Test E disease rating (100 = 100% disease control, 0 = no disease control): 21%
[3]; [9]
  Test B disease rating (100 = 100% disease control, 0 = no disease control): 20%
[4]; [8]
  Test C disease rating (100 = 100% disease control, 0 = no disease control): 31%

## N-methyl-2-[1-[[5-methyl-3-(trifluoromethyl)-1H-pyrazol-1-yl]acetyl]-4-piperidinyl]-N-[(1R)-1-phenylethyl]-4-thiazolecarboxamide [Compound 70]
[1]; [8]
  Test A disease rating (100 = 100% disease control, 0 = no disease control): 0%
[2]; [8]
  Test E disease rating (100 = 100% disease control, 0 = no disease control): 0%
[3]; [9]
  Test B disease rating (100 = 100% disease control, 0 = no disease control): 0%
[4]; [8]
  Test C disease rating (100 = 100% disease control, 0 = no disease control): 33%
